# Assay results: publication PMC9135253, “Potential of phenothiazines to synergistically block calmodulin and reactivate PP2A in cancer cells” (PLoS ONE, 2022)
# “And” between values parts separate entries of the source, which are not always exact repeats. Equal values may be shown once. Read-outs that look alike come from different tables or passages of the source.
# Key:
# Assay type in all cases: cell-based
# [1] = system: NCI-H358 (KRAS-G12C) 3D spheroids; assay: 3D spheroid formation assay (alamarBlue), NCI-H358
# Experimental: (§1) 3D spheroid formation assays were performed in 96-well low-attachment, suspension culture plates (cat. no. 655185, Cellstar, Greiner Bio-One) under serum free conditions. About 1000 cells per well were seeded in 50 μL RPMI medium (cat. no. 52400–025, Gibco, ThermoFisher Scientific) containing 0.5% (v/v) MethoCult (cat. no. SF H4636, Stemcell technologies), 1X B27 (cat. no. 17504044, Gibco, ThermoFisher Scientific), 25 ng/mL EGF (cat. no. E9644, Sigma-Aldrich) and 25 ng/ mL FGF (cat. no. RP-8628, ThermoFisher Scientific). Cells were cultured for 3 days and then treated with compounds or vehicle control (DMSO 0.1% (v/v) in growth medium) for another 3 days. The cells were supplemented with fresh growth medium on the third day together with the drug treatment. Spheroid formation efficiency was analyzed by alamarBlue assay reagent (cat. no. DAL1100, ThermoFisher Scientific).
# (§2) A 10% (v/v) final volume of alamarBlue reagent was added to each well of the plate and incubated for 4 h at 37°C. Then the fluorescence intensity (λexcitation 560 ± 5 nm and λemission 590 ± 5 nm) was measured using the FLUOstar OPTIMA plate reader (BMG Labtech, Germany).
# (§3) (A) Heatmap of ATARiS gene sensitivity scores of two KRAS dependent cell lines (NCI-H358 and MDA-MB-231) and a BRAF dependent cell line (A375). Negative values (shaded red) indicate sensitivity of the cell line proliferation to the knockdown of shown genes, whereas positive scores (shaded blue) indicate insensitivity. (B) IC50 values for indicated compounds in Ras pathway mutant cell lines NCI-H358, MDA-MB231 and A375 grown as 3D spheroids under serum free conditions. […] Statistical comparisons were done using the average values across all three cell lines. […] Positive scores indicate synergistic drug interactions whereas negative scores would denote antagonistic drug interactions. A score of zero would indicate no antagonistic or synergistic effect. (D) Flow cytometric analysis of apoptosis in MDA-MB-231 cells. […] Benzethonium chloride and DMSO treated cells were used as positive and negative controls, respectively, for setting the gates. Percentage of total apoptotic cells (early and late stage) from two biological repeats (mean ± SD) is presented. Statistical analysis was performed using Fisher’s exact test comparing the total number of viable and apoptotic cells from two biological repeats. (E) Effect of inhibitors on cellular apoptosis studied using Caspase-3/7Glo assay. […] The caspase-3/7 activity was measured as a luminescence read-out and normalized to the vehicle control, 0.05% (v/v) DMSO. […] GAPDH detection was used as loading control.
# [2] = system: A375 (BRAF-V600E) 3D spheroids; assay: 3D spheroid formation assay (alamarBlue), A375
# Experimental: as §1, §2, §3
# [3] = system: MDA-MB-231 (KRAS-G13D) 3D spheroids; assay: 3D spheroid formation assay (alamarBlue), MDA-MB-231
# Experimental: as §1, §2, §3
# MDA-MB-231 cells [4] = assay: Flow cytometry-based apoptosis assay (Annexin V-FITC / 7-AAD); conditions: DT-061 10 μM, calmidazolium 5 μM or combination, 24 h
# Experimental: MDA-MB-231 cells were grown for 24 h in complete RPMI medium. The next day the cells were treated with inhibitors for 24 h. […] The cells were labelled using the Annexin V-FITC / 7-AAD apoptosis-detection kit (Beckman-Coulter, cat. no. B60224-AB) according to the manufacturer’s instruction.
# as §3, with “Negative” for “(A) Heatmap of ATARiS gene sensitivity scores of two KRAS dependent cell lines (NCI-H358 and MDA-MB-231) and a BRAF dependent cell line (A375). Negative”
# [5] = system: K-RasG12V (Rluc8-/GFP2-tagged) in HEK-293 EBNA cells; assay: K-RasG12V nanoclustering-BRET assay; conditions: for K-RasG12V BRET: compounds 20 μM, FTI-277 1 μM, OphA 2.5 μM, 24 h
# [6] = system: H-RasG12V (Rluc8-/GFP2-tagged) in HEK-293 EBNA cells; assay: H-RasG12V nanoclustering-BRET assay; conditions: for H-RasG12V BRET: compounds 20 μM, FTI-277 1 μM, OphA 2.5 μM, 24 h
# [7] = system: pERK/ERK in MIA PaCa-2 cells; assay: Western blot of MAPK signaling output (pERK/ERK); conditions: for normalized pERK/ERK ratio %: MIA PaCa-2 + EGF
# MDA-MB-231 cells [8] = assay: 2D cell viability assay (alamarBlue), MDA-MB-231; conditions: MDA-MB-231, 72 h
# MIA PaCa-2 cells = assay: 2D cell viability assay (alamarBlue), MIA PaCa-2; conditions: MIA PaCa-2, 72 h
# HEK-293 EBNA cells = assay: 2D cell viability assay (alamarBlue), HEK-293 EBNA; conditions: 72 h
# [9] = Homo sapiens, A-375, 72 h, A375 3D spheroids, serum free, 3 days treatment, replicates N1, N2
# [10] = Homo sapiens, A-375, A375 3D spheroids, Mean, n = 2
# [11] = Homo sapiens, NCI-H358, NCI-H358 3D spheroids, Mean, n = 2, read-out: IC50 values
# [12] = NCI-H358 3D spheroids, serum free, 3 days treatment, replicates N1, N2, read-out: IC50 values
# [13] = A375 3D spheroids, serum free, 3 days treatment, replicates N1, N2
# [14] = Homo sapiens, MDA-MB-231, MDA-MB-231 3D spheroids, Mean, n = 2, read-out: IC50 values
# [15] = MDA-MB-231 3D spheroids, serum free, 3 days treatment, replicates N1, N2, read-out: IC50 values
# [16] = A/D plasmid ratio 4/1, individual replicates N1.1-N3.4
# [17] = A/D plasmid ratio 4/1, individual replicates N1.1-N2.4
SMILES,"IC50 [2, 9] [µM]","IC50 [2, 10] [µM]","IC50 [1, 11] [µM]","IC50 [1, 12]","IC50 [2, 13] [µM]","IC50 [3, 14] [µM]","IC50 [3, 15]","K-RasG12V BRET [5, 16]",K-RasG12V BRET ([5]; mean),"H-RasG12V BRET [6, 17]",H-RasG12V BRET ([6]; mean),further results
C=CC(=O)N1CCN(c2ncnc3c(F)c(-c4c(O)cccc4F)c(Cl)cc23)CC1 [ARS-1620],> 40,> 40,–,–,–,–,–,–,–,–,–,"IC50 ([1]; Homo sapiens, NCI-H358, 72 h, read-out: IC50 values, NCI-H358 3D spheroids, serum free, 3 days treatment, replicates N1, N2): 0.6 µM; IC50 ([1]; Homo sapiens, NCI-H358, read-out: IC50 values, NCI-H358 3D spheroids, Mean, n = 2): 0.46 µM; IC50 ([1]; read-out: IC50 values, NCI-H358 3D spheroids, serum free, 3 days treatment, replicates N1, N2): 0.32 µM; IC50 ([3]; Homo sapiens, MDA-MB-231, 72 h, read-out: IC50 values): > 40 µM; IC50 ([3]; Homo sapiens, MDA-MB-231, read-out: IC50 values): > 40 µM"
Clc1ccc(C(c2ccc(Cl)cc2)n2cc[n+](CC(OCc3ccc(Cl)cc3Cl)c3ccc(Cl)cc3Cl)c2)cc1 (centres unmarked) [calmidazolium],1.1,1.31,1.3,1.29 µM,1.51,1.37,0.83 µM and 1.9 µM,56.1219 and 37.0972 and 36.7653 and 36.0615 and 56.3093 and 55.7392 and 55.8068 and 41.7975 and 44.4475 and 43.3047 and 43.8108 and 37.7034,45.41,65.4602 and 65.6531 and 66.0593 and 64.447 and 71.623 and 67.855 and 69.3028 and 69.9269,67.54,"IC50 ([1]; Homo sapiens, NCI-H358, 72 h, NCI-H358 3D spheroids, serum free, 3 days treatment, replicates N1, N2, read-out: IC50 values): 1.3 µM; apoptotic cells (%) (MDA-MB-231 cells [4]; early and late stage, replicates N1, N2): 46.8015% and 19.4293%; apoptotic cells (%) (MDA-MB-231 cells [4]; mean): 33.12%; DSS3 BRET score ([5]; K-RasG12V nanoclustering-BRET dose response (0.1–80 μM; OphA 0.3–20 μM), replicates): 7.4 and 5.3 and 6.1; DSS3 BRET score ([5]; K-RasG12V nanoclustering-BRET, mean): 6.27; DSS3 BRET score ([6]; H-RasG12V nanoclustering-BRET dose response (0.1–80 μM; OphA 0.3–20 μM), replicates): 4.1 and 3.4; DSS3 BRET score ([6]; H-RasG12V nanoclustering-BRET, mean): 3.75; normalized pERK/ERK ratio % ([7]; 2 h, trametinib 1 μM, AMG-510 1 μM, calmidazolium 20 μM, DT-061 20 μM, combination each 10 μM, fluphenazine mustard 20 μM, replicates N1-N3, listed as camidazolium): 79.2728% and 51.9352% and 71.8958%"
COC(=O)[C@H](CCSC)NC(=O)c1ccc(NC[C@@H](N)CS)cc1-c1ccccc1 [FTI-277],–,–,–,–,–,–,–,72.2368 and 88.8749 and 88.6228 and 90.7219 and 73.1065 and 73.006 and 71.9005 and 74.3032 and 75.1082 and 75.0152 and 73.992 and 87.4754,78.7,55.9675 and 54.6788 and 57.991 and 55.5016 and 58.8518 and 57.6476 and 60.7427 and 58.4164,57.47,–
C=CC(=O)N1CCN(c2nc(=O)n(-c3c(C)ccnc3C(C)C)c3nc(-c4c(O)cccc4F)c(F)cc23)[C@@H](C)C1 [AMG-510],–,–,–,–,–,–,–,–,–,–,–,"potency relative to Flu-M in MAPK-signaling (pERK) inhibition ([7]; MIA PaCa-2): at least 20 times; normalized pERK/ERK ratio % ([7]; 2 h, trametinib 1 μM, AMG-510 1 μM, calmidazolium 20 μM, DT-061 20 μM, combination each 10 μM, fluphenazine mustard 20 μM, replicates N1-N3): 29.0898% and 30.5706% and 27.2049%; normalized pERK/ERK ratio % ([7]; same treatments, mean): 28.96%; 2D monolayer DSS3 (MDA-MB-231 cells [8]; Mean): 4.2; 2D monolayer DSS3 (MDA-MB-231 cells [8]; replicates N1-N3): 1.7 and 3 and 7.9; 2D monolayer DSS3 (MIA PaCa-2 cells; Mean): 64.97; 2D monolayer DSS3 (MIA PaCa-2 cells; replicates N1-N3): 62.6 and 65 and 67.3; 2D monolayer DSS3 (HEK-293 EBNA cells; Mean): 15.93; 2D monolayer DSS3 (HEK-293 EBNA cells; replicates N1-N3): 22.8 and 12.8 and 12.2"
"CN1CCN(CCCN2c3ccccc3Sc3ccc(C(F)(F)F)cc32)CC1 [triflouperazine, trifluoperazine]",0.25,0.31,0.69,0.39 µM and 0.98 µM,0.36,0.59,0.74 µM,–,–,–,–,"IC50 ([3]; Homo sapiens, MDA-MB-231, 72 h, MDA-MB-231 3D spheroids, serum free, 3 days treatment, replicates N1, N2, read-out: IC50 values): 0.43 µM"
